Reference: patent US20260008787A1, “FUSED RING KRAS INHIBITORS FOR TREATING DISEASE” (BLOSSOMHILL THERAPEUTICS, INC., priority 2022, published 2026)

Experiments:
GP2D (KRAS G12D) = experiment: Cell proliferation assay (CellTiter-Glo, 72 hours), GP2D; type: cell-based; conditions: GP2d, 72 h, 384-well, CellTiter-Glo 2.0
Procedure: (§1) Two thousand KRAS mutant cells per well were seeded in 384-well white plate and then treated with indicated compounds for 72 hours at 37° C. and 5% CO2. Cell proliferation was measured using CellTiter-Glo 2.0 luciferase-based ATP detection assay (Promega, Madison, WI) following the manufacturer's protocol. IC50 values were determined using Prism software (GraphPad Software, San Diego, CA).

KRAS G12V = KRAS G12V (Homo sapiens, UniProt P01116, G12V); experiment: biochemical
KRAS G12V, sequence (P01116 1-188 isoform P01116-2 G12V): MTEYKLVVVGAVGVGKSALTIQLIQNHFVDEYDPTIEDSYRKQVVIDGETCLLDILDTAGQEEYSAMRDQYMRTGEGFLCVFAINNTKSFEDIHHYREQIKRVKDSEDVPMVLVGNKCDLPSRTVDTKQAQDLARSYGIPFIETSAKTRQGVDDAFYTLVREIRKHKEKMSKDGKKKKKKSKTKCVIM

SW620 (KRAS G12V) = experiment: Cell proliferation assay (CellTiter-Glo, 72 hours), SW620; type: cell-based; conditions: Homo sapiens, SW-620, 72 h, 384-well, CellTiter-Glo 2.0
Procedure: as §1

AGS (G12D) = experiment: Cell proliferation assay (CellTiter-Glo, 72 hours), AGS; type: cell-based; conditions: 72 h, 384-well, CellTiter-Glo 2.0
Procedure: as §1

KRAS G12D = KRAS G12D (Homo sapiens, UniProt P01116, G12D); experiment: biochemical
KRAS G12D, sequence (P01116 1-188 isoform P01116-2 G12D): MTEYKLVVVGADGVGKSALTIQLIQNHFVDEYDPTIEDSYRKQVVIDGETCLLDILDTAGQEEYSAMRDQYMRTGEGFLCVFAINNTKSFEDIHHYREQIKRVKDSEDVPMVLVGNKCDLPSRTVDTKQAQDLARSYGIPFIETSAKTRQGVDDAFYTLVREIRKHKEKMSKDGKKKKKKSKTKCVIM

SMILES	IC50 (GP2D (KRAS G12D))	IC50 (KRAS G12V)	IC50 (SW620 (KRAS G12V))	IC50 (AGS (G12D))	IC50 (KRAS G12D)
C#Cc1c(F)ccc2cc(O)cc(-c3nc4c5c(nc(OC[C@@]67CCCN6C[C@H](F)C7)nc5c3F)N(Cc3ccccc3)[C@@H](C)CO4)c12 [Example 74, 4-[(9S)-10-benzyl-4-fluoro-2-{[(2R,7aS)-2-fluorotetrahydro-1H-pyrrolizin-7a(5H)-yl]methoxy}-9-methyl-9,10-dihydro-8H-7-oxa-1,3,6,10-tetraazacyclohepta[1,2,3-de]naphthalen-5-yl]-5-ethynyl-6-fluoronaphthalen-2-ol]	480 nM	2.81 nM	348 nM	1480 nM	4 nM
CCc1c(F)ccc2cc(O)cc(-c3nc4c5c(nc(OC[C@@]67CCCN6C[C@H](F)C7)nc5c3F)N3CCCC[C@H]3C(C)O4)c12 (stereo partly drawn) [Example 75, 5-ethyl-6-fluoro-4-((5aS)-1-fluoro-11-(((2R,7aS)-2-fluorotetrahydro-1H-pyrrolizin-7a(5H)-yl)methoxy)-5-methyl-5,5a,6,7,8,9-hexahydro-4-oxa-3,9a, 10,12-tetraazabenzo[4,5]cyclohepta[1,2,3-de]naphthalen-2-yl)naphthalen-2-ol]	349 nM	1.6 nM	702 nM	1620 nM	1.76 nM
Fc1c(-c2c(Cl)ccc3[nH]ncc23)nc2c3c(nc(OC[C@@]45CCCN4C[C@H](F)C5)nc13)N1CCCC[C@H]1CO2 [Example 78, (7S)-12-(5-chloro-1H-indazol-4-yl)-13-fluoro-16-[[(2R,8S)-2-fluoro-1,2,3,5,6,7-hexahydropyrrolizin-8-yl]methoxy]-9-oxa-2,11,15,17-tetrazatetracyclo [8.7.1.02,7.014,18]octadeca-1 (17),10 (18),11,13,15-pentaene]	> 3000 nM	51.9 nM	> 3000 nM	> 3000 nM	40.2 nM
C#Cc1c(F)ccc2cc(O)cc(-c3nc4c5c(nc(OCC67CCCN6C/C(=C/F)C7)nc5c3F)N3CCCC[C@H]3CO4)c12 (stereo partly drawn) [Example 79, 5-ethynyl-6-fluoro-4-[(8aS)-4-fluoro-2-{[(2E)-2-(fluoromethylidene)tetrahydro-1H-pyrrolizin-7a(5H)-yl]methoxy}-8,8a,9,10,11,12-hexahydro-7-oxa-1,3,6,12a-tetraazabenzo[4,5]cyclohepta[1,2,3-de]naphthalen-5-yl]naphthalen-2-ol]	2.26 nM	1.69 nM	11.2 nM	3.33 nM	1.65 nM
C#Cc1c(F)ccc2cc(O)cc(-c3nc4c5c(nc(OC[C@@]67CCCN6C[C@H](F)C7)nc5c3F)NCCO4)c12 [Example 82, 5-ethynyl-6-fluoro-4-(4-fluoro-2-{[(2R,7aS)-2-fluorotetrahydro-1H-pyrrolizin-7a(5H)-yl]methoxy}-9,10-dihydro-8H-7-oxa-1,3,6,10-tetraazacyclohepta[1,2,3-de]naphthalen-5-yl)naphthalen-2-ol]	470 nM	2.79 nM	> 3000 nM	1440 nM	2.64 nM
N#Cc1c(N)sc2c(F)ccc(-c3nc4c5c(nc(OC[C@@]67CCCN6C[C@H](F)C7)nc5c3F)N3CCCC[C@H]3CO4)c12 [Example 85, 2-amino-7-fluoro-4-[(8aS)-4-fluoro-2-{[(2R,7aS)-2-fluorotetrahydro-1H-pyrrolizin-7a(5H)-yl]methoxy}-8,8a,9,10,11,12-hexahydro-7-oxa-1,3,6,12a-tetraazabenzo[4,5]cyclohepta[1,2,3-de]naphthalen-5-yl]-1-benzothiophene-3-carbonitrile]	143 nM	2.17 nM	820 nM	631 nM	2.35 nM
C#Cc1c(F)ccc2cc(F)cc(-c3nc4c5c(nc(OC[C@@]67CCCN6C[C@H](F)C7)nc5c3F)N3CCCC[C@H]3CO4)c12 [Example 89, (7S)-12-(8-ethynyl-3,7-difluoro-1-naphthyl)-13-fluoro-16-[[(2R,8S)-2-fluoro-1,2,3,5,6,7-hexahydropyrrolizin-8-yl]methoxy]-9-oxa-2,11,15,17-tetrazatetracyclo[8.7.1.02,7.014,18]octadeca-1 (17),10 (18),11,13,15-pentaene]	1170 nM	4.2 nM	> 3000 nM	> 3000 nM	3.93 nM
C#Cc1c(F)ccc2cc(O)cc(-c3nc4c5c(nc(OC[C@@]67CCCN6C[C@H](F)C7)nc5c3F)N(C)C3(CC3)CO4)c12 [Example 93]	140 nM	1.55 nM	981 nM	560 nM	1.99 nM
C#Cc1c(F)ccc2cc(O)cc(-c3nc4c5c(nc(OC[C@@]67CCCN6C[C@H](F)C7)nc5c3F)N(C)[C@@H](CC)CO4)c12 [Example 96, 4-[(9S)-9-ethyl-4-fluoro-2-{[(2R,7aS)-2-fluorotetrahydro-1H-pyrrolizin-7a(5H)-yl]methoxy}-10-methyl-9,10-dihydro-8H-7-oxa-1,3,6,10-tetraazacyclohepta[1,2,3-de]naphthalen-5-yl]-5-ethynyl-6-fluoronaphthalen-2-ol]	16.8 nM	2.46 nM	92.6 nM	82.9 nM	2.39 nM
CCc1c(F)ccc2cc(O)cc(-c3nc4c5c(nc(OC[C@@]67CCCN6C[C@H](F)C7)nc5c3F)N(C)[C@@H](CC)CO4)c12 [Example 99]	22.4 nM	1.02 nM	96.8 nM	86.3 nM	0.85 nM
C#Cc1c(F)ccc2cc(O)cc(-c3nc4c5c(nc(OC[C@@]67CCCN6C[C@H](F)C7)nc5c3F)N3CCCC(O4)C3CO)c12 (stereo partly shown) [Example 104]	188 nM	9.01 nM	903 nM	666 nM	7.51 nM
C#Cc1c(F)ccc2cc(O)cc(-c3nc4c5c(nc(OC[C@@]67CCCN6C[C@H](F)C7)nc5c3F)N3CC=CC[C@H]3CO4)c12 [Example 106, 5-ethynyl-6-fluoro-4-[(7S)-13-fluoro-16-[[(2R,8S)-2-fluoro-1,2,3,5,6,7-hexahydropyrrolizin-8-yl]methoxy]-9-oxa-2,11,15,17-tetrazatetracyclo [8.7.1.0^2,7.0^14,18]octadeca-1 (17),4,10 (18),11,13,15-hexaen-12-yl]naphthalen-2-ol]	14.6 nM	3.83 nM	64.5 nM	48.8 nM	3.26 nM
C#Cc1c(F)ccc2cc(O)cc(-c3nc4c5c(nc(OC[C@@]67CCCN6C[C@H](F)C7)nc5c3F)N3CC(C#N)CCC3CO4)c12 (stereo partly drawn) [Example 109, 5-(8-ethynyl-7-fluoro-3-hydroxynaphthalen-1-yl)-4-fluoro-2-{[(2R,7aS)-2-fluorotetrahydro-1H-pyrrolizin-7a(5H)-yl]methoxy}-8,8a,9,10,11,12-hexahydro-7-oxa-1,3,6,12a-tetraazabenzo[4,5]cyclohepta[1,2,3-de]naphthalene-11-carbonitrile]	2000 nM	27 nM	> 3000 nM	> 3000 nM	15.9 nM
C#Cc1c(F)ccc2cc(O)cc(-c3nc4c5c(nc(OC[C@@]67CCCN6C[C@H](F)C7)nc5c3F)N3CC(C(N)=O)CCC3CO4)c12 (stereo partly drawn) [Example 110, 5-(8-ethynyl-7-fluoro-3-hydroxynaphthalen-1-yl)-4-fluoro-2-{[(2R,7aS)-2-fluorotetrahydro-1H-pyrrolizin-7a(5H)-yl]methoxy}-8,8a,9,10,11,12-hexahydro-7-oxa-1,3,6,12a-tetraazabenzo[4,5]cyclohepta[1,2,3-de]naphthalene-11-carboxamide]	> 3000 nM	> 10000 nM	> 3000 nM	> 3000 nM	> 10000 nM
